Test results: patent publication US20110294794A1, “TREATMENT OF PROTEINOPATHIES USING A FARNESYL TRANSFERASE INHIBITOR” (Link Medicine Corporation, priority 2008, published 2011)
“Also recorded” adds a separate entry of the source.

Key:
Aβ = assay: h-APPsl transgenic mouse, Aβ immunoreactivity and extracted Aβ; format: in vivo; conditions: 0.9 mg/kg once every 24 hr, three months
p70 S6 kinase (S6K) = assay: p70S6K phosphorylation in SH-SY5Y cells; format: cell-based, human; conditions: FIG. 8f
aged non-transgenic rats = assay: Morris water maze in aged non-transgenic rats; format: in vivo, rat; conditions: aged rats (22 months old), 0.3 mg/kg and 0.9 mg/kg once every 24 hours
Source text: Morris water maze (MWM) analysis of cognitive performance: In APP/PS1 transgenic animals, swimming behavior in a Morris Water Maze was videotaped and analyzed (Ethovision, Noldus, Wageningen, Netherlands). For mice, a place navigation test was used to locate the hidden platform in five blocks of three trials over three consecutive days. Each trial consists of a forced swim test of maximum 120 seconds, followed by 60 seconds of rest. The time each mouse needed for location of the platform was measured. For rats, a cued learning phase was first conducted, consisting of 3 trials per day for 5 days, using a visible platform of varying location. Each trial consisted of a forced swim test of maximum 60 seconds, followed by 10 minutes of rest. The time and path length each rat needed to locate the platform was measured.
In order to rule out the possibility that the rapid observed improvement in cognition described above arose from an alternative, transgene-independent mechanism, aged non-transgenic rats (22 months old) were treated with LNK-754-TS (0.3 mg/kg and 0.9 mg/kg, once every 24 hours) and their cognitive performance was measured by MWM and compared to that of younger rats (3 months old) of the same strain.

α-synuclein = assay: Masliah D-line human WT α-synuclein transgenic mouse, α-synuclein immunoreactivity / ELISA; format: in vivo; conditions: for α-synuclein deposition in cortex and hippocampus: three months (FIG. 9a); for number of α-synuclein positive neurons in the brain: higher-dose trial (FIG. 2A)
Experimental: (§1) Animals and treatments: Male and female human WT alpha-synuclein over-expressing transgenic mice^32 at 6 months of age were given vehicle (10% beta-cyclodextrin) or LNK-754-TS (0.09, 0.9 and 9 mg/kg) per oral gavage twice daily for 3 months or animals at 7 months of age were given vehicle (2.5% beta-cyclodextrin) or LNK-754-TS (2 mg/kg) once every three days for 3 months. Male and female TAU transgenic mice expressing TAU441 bearing the missense mutations V337M^50 and R406W under the control of the murine Thy-1 promoter with a CB6xC57BL/6 background were 5 months old at the time when the oral treatment for three months with LNK-754-TS (0.9 and 0.09 mg/kg) as well as vehicle (2.5% beta-cyclodextrin) was started. Female human APP/PS1 (APP (London V7171)/PS1(A246E)) over-expressing transgenic mice were treated with LNK-754-TS (0.9 mg/kg) or vehicle (2.5% beta-cyclodextrin) for 2 months or 12 days.
Immunohistochemistry and quantification of stained cells: For evaluation of α-synuclein immunoreactivity (IR), 5 sagittal cryo-cut sections (10 μm slice thickness) from five different layers were used for counting of IR cells in the cortex and hippocampus. Brain sections were stained with a monoclonal human α-synuclein specific antibody (Alexis®; Cat# 804-258-L001; dilution 1:5), followed by a secondary Ab Cy 2-Goat Anti-Rat (Jackson ImmunoResearch®; dilution 1:200). IR positive cells were quantified using specialized image analysis software (Image Pro Plus, version 4.5.1.29). For Tau transgenic animals, 5 μm thick coronal paraffin sections were stained with the monoclonal mouse anti-human TAU-antibodies (AT180—1:100; HT—1:500) and visualized using an anti-mouse Cy3 secondary antibody (1:500, Jackson laboratories®). Images were evaluated with ImageProPlus (version 6.2) image analysis software. For APP/PS1 transgenic animals sagittal hemisections (40 μm) were collected and processed for Aβ immunohistochemistry using an 6E10 antibody, Thioflavin-S staining Primary antibodies were detected by the ABC method.
ELISA quantification of α-Synuclein in the α-Synuclein transgenic animals: Brain homogenate was centrifuged and the supernatant saved as fraction F1. The pellet was washed then resuspended and saved as fraction F2. Plates (Nunc, 464718) were coated with SYN-1 (1:1000, BD Transduction Labs, 610787). Monomeric recombinant α-synuclein was included as an internal standard. Biotinylated antibody FL-140 (1:300, Santa Cruz Biotechnology, sc-10717-B) and ExtrAvidin-Alkaline phosphatase (3:5000, Sigma, E2636) was added followed by pNPP substrate solution (Sigma, N1891). Raw absorbance (405 nm) was then normalized to the total protein concentration of each sample. In the APP/PS1 transgenic animal, brains were homogenized and the supernatant, Faction 1, was separated from the pellet. The pellets were further processed with addition of NP40 and Triton X-100. The supernatant was separated from the pellet as the insoluble membrane, Fraction 2, and was dissolved in 8M Guanidine. To quantify the amount of human Aβ-40 and Aβ-42, ELISA kits were used (The Genetics Company, Zurich, Switzerland).
In FIG. 2 is shown efficacy data for LNK-754-TS in the Masliah D-line transgenic α-synuclein mouse (an accepted model of synucleinopathies). Two trials are shown, the first (FIG. 2A) at higher doses of LNK-754-TS: 45 mg/kg and 9 mg/kg. […] The second trial (FIG. 2B) explores the low dose range for efficacy in the α-synuclein models. […]
After dosing with LNK-754-TS for three months (twice daily at 0.09 mg/kg or 0.9 mg/kg), α-synuclein accumulation in the brain was analyzed by immunohistochemical (human specific α-synuclein immunoreactivity) and biochemical (α-synuclein ELISA) means. […]

APP/PS1 transgenic mice = assay: Morris water maze in APP/PS1 transgenic mice; format: in vivo, mouse; conditions: 0.9 mg/kg once every 24 hours
Experimental: as §1
Morris water maze (MWM) analysis of cognitive performance: In APP/PS1 transgenic animals, swimming behavior in a Morris Water Maze was videotaped and analyzed (Ethovision, Noldus, Wageningen, Netherlands). For mice, a place navigation test was used to locate the hidden platform in five blocks of three trials over three consecutive days. […] The time each mouse needed for location of the platform was measured. […] The time and path length each rat needed to locate the platform was measured. […]

[1] = three-month dosing trial (FIG. 9c)
[2] = twice daily at 0.09 mg/kg or 0.9 mg/kg, three months

**Q.** What does the source list for `C#Cc1cccc(-c2cc(=O)n(C)c3ccc([C@](O)(c4ccc(Cl)cc4)c4cncn4C)cc23)c1` [LNK-754-TS, (R)-6-[(4-chlorophenyl)-hydroxyl-(1-methyl-1-H-imidazol-5-yl)-methyl]-4-(3-ethynylphenyl)-1-methyl-2-(1H)-quinonlinone (2S,3S)-dihydroxybutanedioate]?
**A.** cortical Aβ immunoreactivity and Aβ extracted in the insoluble fractions (Aβ): did not significantly reduce; decrease / inhibition of p70S6K phosphorylation (p70 S6 kinase (S6K)): did not inhibit; cognitive performance (place learning curves, probe tests) (aged non-transgenic rats): no significant cognitive improvement; α-synuclein deposition in cortex and hippocampus (α-synuclein; 0.09 mg/kg twice every 24 hr): halts deposition; α-synuclein deposition in cortex and hippocampus (α-synuclein; 0.9 mg/kg twice every 24 hr): halts deposition; cortical α-synuclein immunoreactivity vs. baseline and vehicle (α-synuclein; 2 mg/kg once every 72 hr, three months (FIG. 9b)): significantly lower; also recorded: significantly reduces; number of α-synuclein positive neurons in the brain (α-synuclein; 9 mg/kg PO BID 3 months): significant reduction; number of α-synuclein IR cells in the hippocampus vs. saline (α-synuclein; 9 mg/kg group, PO BID 3 months, lower-dose trial (FIG. 2B)): significance level was not reached; number of α-synuclein positive neurons in the brain (α-synuclein; 45 mg/kg PO BID 3 months): not significantly effective; efficacious dose in the α-synuclein transgenic mouse (α-synuclein; PO BID 3 months): ≤ 9 mg/kg; number of α-synuclein IR cells in the hippocampus vs. saline (α-synuclein; all applied dosages except 9 mg/kg, PO BID 3 months (FIG. 2B)): significant decrease; effect on neuronal architecture (NeuN) (α-synuclein; [1]): lack of effect; reduction of α-synuclein immunoreactivity, representative hippocampal slices (α-synuclein; [1]): ca. 50%; astrocytosis: GFAP staining (α-synuclein; [2]): unchanged; drug-dependent toxicity (α-synuclein; [2]): None of the treated animals showed any evidence; neuronal loss: NeuN staining and brain volume (α-synuclein; [2]): unchanged; synaptic damage: synaptophysin staining (α-synuclein; [2]): unchanged; α-synuclein accumulation in the brain (immunoreactivity and ELISA) (α-synuclein; [2]): clearly reduced; cognitive performance in Morris water maze vs. vehicle (APP/PS1 transgenic mice; 12 days): significant cognitive improvement; cognitive performance in Morris water maze vs. vehicle (APP/PS1 transgenic mice; two months): performed significantly better; also recorded: significant cognitive improvement
